Measurements published in patent US12685297B2, “Genetically modified mouse, methods for producing the same, and uses thereof” (MacKay Memorial Hospital, priority 2023, dated 2026).

Tested on: GYP.Mur knock-in mice and control mice
Assay: Evaluation of anti-hypertensive medications: blood pressure after oral gavage
Format: in vivo, mouse (C57BL/6J)
Description: Mouse BP was measured using an 8-channel non-invasive blood pressure system, a conventional instrument for murine BP measurements with about 99% correlation to the invasive telemetry approach. The BP system is a traditional, tail-cuff method, with a volume-pressure recording (VPR) sensor-cuff (similar to a stethoscope) and an occlusion cuff (similar to the arm cuff for conventional human BP measurement). The instrument settings in this study were 5 acclimation cycles, 15 cycles per set, 250 mmHg as the maximal occlusion pressure, and 20 seconds for deflation. Before the measurement, the experimenter gently placed a mouse in a holder or at the entry point of the holder, from which the mouse could voluntarily walked into the holder. An occlusion cuff and a VPR cuff were then fitted onto the mouse tail. The holder carrying a cuffed mouse inside was moved to the warming platform and covered with a thermal blanket, which ensured the temperature of the tail to be within 32-35° C. during volume-pressure-based BP measurements. Invalid measurements were mostly due to unmet tail temperature or restless states of the animal, which were identified and excluded. After BP measurements, the mice were immediately put back to their own cage. The body weight (BW) of each mouse was measured for preparation of individual anti-hypertensive doses (in mg drug per Kg BW). The mice were individually administered by oral gavage of an anti-hypertensive drug mixed in 100 μL autoclaved ddH2O. The dose and maximal efficacy of an anti-hypertensive drug was determined based on the degrees of BP drop within an hour of anti-hypertensive administration. One dose of an anti-hypertensive drug was tested on a single day. On the morning of the test day, the blood pressure of GYP.Mur knock-in mice and age-matched control mice (wild-type mice) was first measured. Only the mice with SBP>120 mmHg on that day were tested with an anti-hypertensive medication. The BP and heart rates (HR) of the mice were measured at the 1st, 3rd, 5th, and the 24th hour post-medication. […]

SMILES | duration of sustained BP-lowering effects (following oral gavage, control and GYP.Mur knock-in mice) [h] | BP-lowering effects at the 3rd hour post-oral gavage (3rd hour post-oral gavage, compared with one hour, data not shown) | time after medication at which BP was lowered most substantially (oral gavage, control and GYP.Mur knock-in mice, data not shown)
CCOC(=O)C1=C(COCCN)NC(C)=C(C(=O)OC)C1c1ccccc1Cl (stereo not drawn) [amlodipine] | 5 |  | 
C[C@H](CS)C(=O)N1CCC[C@H]1C(=O)O [captopril] |  | slightly diminished | one
